The values that follow come from patent US10723711B2, “1,1,1-trifluoro-3-hydroxypropan-2-yl carbamate derivatives and 1,1,1-trifluoro-4-hydroxybutan-2-yl carbamate derivatives as MAGL inhibitors” (PFIZER INC., priority 2015, dated 2020).

Read-outs that look alike come from different tables or passages of the source. Some results are limits rather than exact numbers.

Type in all cases: biochemical
The target of test [1] is T1, human recombinant Monoacylglycerol Lipase (Homo sapiens, UniProt Q99685).
T1 sequence (Q99685 1-303): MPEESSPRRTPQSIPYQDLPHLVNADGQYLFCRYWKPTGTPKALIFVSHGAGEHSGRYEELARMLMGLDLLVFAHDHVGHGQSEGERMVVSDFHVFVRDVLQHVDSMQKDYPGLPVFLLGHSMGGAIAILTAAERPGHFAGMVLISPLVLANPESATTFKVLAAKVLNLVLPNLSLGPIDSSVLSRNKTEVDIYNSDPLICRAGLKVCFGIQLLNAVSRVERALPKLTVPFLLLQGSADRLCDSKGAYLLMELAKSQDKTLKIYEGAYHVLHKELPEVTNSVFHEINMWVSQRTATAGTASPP
In words: MAGL inhibition enzymatic assay, fluorogenic substrate 7-HCA, IC50 at T=0 min or after 30 minute incubation (T=30 min). The note with it: geometric mean of 2-4 determinations unless otherwise indicated. Here is the method:
An equal volume of 7-HCA in assay buffer with 10% DMSO was added either immediately (T=0 min) or after a 30 minute incubation (T=30 min) to initiate the reaction. […] After these dilutions, the final concentration of the test compound ranged from 3 μM to 0.03 nM. […] IC50 values were generated based on a four parameter fit model using ABASE software from IDBS.

The target of test [2] is T1, human recombinant Monoacylglycerol Lipase. The test can be described thus: MAGL inactivation, enzyme progress curves, kinact/KI. The note with it: from enzyme progress curves, T = 0 min protocol; geometric mean of 2-4 determinations unless otherwise indicated. Here is the method: Assessment of MAGL inhibition utilizes human recombinant Monoacylglycerol Lipase and the fluorogenic substrate 7-hydroxycoumarinyl arachidonate (7-HCA, Biomol ST-502). 400 nL of a test compound at decreasing concentration (ranging from 150 μM down to 1.5 nM) was spotted into a 384-well back plate (PerkinElmer, 6007279) using a Labcyte Echo, followed by addition of 10 μL of MAGL enzyme in assay buffer (50 mM HEPES, pH 7.4, 100 mM NaCl, 5 mM MgCl2, 0.1% Triton X-100 and 25% glycerin). An equal volume of 7-HCA in assay buffer with 10% DMSO was added either immediately (T=0 min) or after a 30 minute incubation (T=30 min) to initiate the reaction. The final concentration of MAGL enzyme was […] and 7-HCA substrate was 5 μM. After these dilutions, the final concentration of the test compound ranged from 3 μM to 0.03 nM. The reaction was allowed to progress for 60 minutes, after which the plate was read at an Ex/Em of 340/465. Percent inhibitions were calculated based on control wells containing no compound (0% inhibition) and a control compound (e.g., a MAGL inhibitor whose activity is known or was previously reported in the literature, such as one with about 100% inhibition). IC50 values were generated based on a four parameter fit model using ABASE software from IDBS. See e.g., Wang, Y. et al., “A Fluorescence-Based Assay for Monoacylglycerol Lipase Compatible with Inhibitor Screening,” Assay and Drug Development Technologies, 2008, Vol. 6 (3) pp 387-393 (reporting an assay for measuring MAGL activity).
To measure MAGL inactivation, the same protocol for the (T=0 min) MAGL inhibition IC50 assay was performed with data collected every minute to acquire enzyme progress curves at decreasing concentrations of compound.

The target in a further test is T2, human recombinant FAAH (Homo sapiens, UniProt O00519).
T2 construct: purchased Cayman 10010183
T2 sequence (O00519 1-579): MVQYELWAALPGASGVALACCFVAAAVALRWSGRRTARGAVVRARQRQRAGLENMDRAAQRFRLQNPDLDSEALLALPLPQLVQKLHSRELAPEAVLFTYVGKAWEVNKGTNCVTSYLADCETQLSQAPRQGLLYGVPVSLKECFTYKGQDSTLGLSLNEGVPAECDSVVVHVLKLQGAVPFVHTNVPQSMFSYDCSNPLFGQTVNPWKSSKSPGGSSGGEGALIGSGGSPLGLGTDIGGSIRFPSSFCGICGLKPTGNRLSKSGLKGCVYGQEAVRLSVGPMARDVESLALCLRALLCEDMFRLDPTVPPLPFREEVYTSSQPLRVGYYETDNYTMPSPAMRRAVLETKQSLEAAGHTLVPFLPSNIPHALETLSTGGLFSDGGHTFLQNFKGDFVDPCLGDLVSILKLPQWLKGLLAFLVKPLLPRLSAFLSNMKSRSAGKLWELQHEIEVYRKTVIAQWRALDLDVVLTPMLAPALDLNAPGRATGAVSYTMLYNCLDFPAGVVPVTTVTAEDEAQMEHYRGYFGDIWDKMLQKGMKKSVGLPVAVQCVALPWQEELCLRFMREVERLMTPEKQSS
The test can be described thus: FAAH inhibition enzymatic assay, fluorescent substrate Arachidonoyl-AMC, 30 minute incubation. The note with it: T = 30 min (30 minute incubation); geometric mean of 2-4 determinations unless otherwise indicated. Here is the method:
Assessment of FAAH inhibition utilizes human recombinant FAAH and the fluorescent substrate, Arachidonoyl-AMC. 400 nL of a test compound at decreasing concentrations was spotted into a 384-well back plate (PerkinElmer, 6007279) using a Labcyte Echo, followed by addition of 10 μl of FAAH enzyme (Cayman 10010183) in assay buffer (50 mM Tris, pH 9.0, 1 mM EDTA). After a 30 minute incubation at room temperature, 10 μL of Arachidonyl-AMCA was added in assay buffer with 16% DMSO. Final concentration of FAAH enzyme was 0.0125 Units and AAMCA substrate was used at the Km of 5 μM. […] The reaction was allowed to progress for 60 minutes, after which the plate was read on a Molecular Devices FlexStation reader at an Ex/Em of 355/460. Percent inhibitions were calculated based on controls wells containing either no compound (0% inhibition) or a control compound (e.g., an FAAH inhibitor whose activity is known or was previously reported in the literature, such as one with about 100% inhibition). IC50 values were generated based on a four parameter fit model using ABASE software from IDBS.

Where [3] appears, read: T = 0 min (substrate added immediately), read-out: MAGL (T = 0 min) IC50.
The mark [4] stands for this setting: T = 30 min (30 minute incubation), read-out: MAGL (T = 30 min) IC50.

As to `Cc1ccc(S(=O)(=O)N2CCOC3(CCN(C(=O)O[C@H](CO)C(F)(F)F)CC3)C2)cc1F` [Example 73], the values for the IC50 (in test [1] (setting [3]); in test [1] (setting [4]); on human recombinant FAAH) were 5 nM, 1 nM and over 30000 nM, respectively. The “MAGL kinact/KI” value in test [2] is reported as 96515 1/s per M.

Regarding `CC(c1ccc(F)cc1)N1CCOC2(CCN(C(=O)O[C@H](CO)C(F)(F)F)CC2)C1` (single isomer, unassigned) [Example 45], the half-inhibitory concentration (IC50) in test [1] (setting [3]) is 191 nM; in test [1] (setting [4]), 18 nM; on human recombinant FAAH it was over 30000 nM. Also, the “MAGL kinact/KI” value in test [2] is 3134 1/s per M.

For the compound `CN(C1COC2(CCN(C(=O)O[C@H](CO)C(F)(F)F)CC2)C1)S(=O)(=O)c1ccc(F)cc1` (single isomer, unassigned) [Example 110], the concentration for half-maximal inhibition (IC50) was 70 nM in test [1] (setting [3]), 6 nM in test [1] (setting [4]) and 7090 nM at human recombinant FAAH. Moreover, the “MAGL kinact/KI” value in test [2] is listed as 8796 1/s per M.

As for `O=C(O[C@H](CO)C(F)(F)F)N1C[C@@H]2[C@H](C1)[C@H]2c1ccn(-c2ccc(F)cc2)n1` [Example 3, (2R)-1,1,1-Trifluoro-3-hydroxypropan-2-yl (1α,5α,6α)-6-[1-(4-fluorophenyl)-1H-pyrazol-3-yl]-3-azabicyclo[3.1.0]hexane-3-carboxylate], the IC50 in test [1] (setting [3]) amounted to 35 nM; in test [1] (setting [4]), 3 nM; at human recombinant FAAH, 2480 nM. In addition, the “MAGL kinact/KI” value in test [2] is reported as 20005 1/s per M.

As for `CN(C(=O)c1ccccc1)C1COC2(CCN(C(=O)O[C@H](CO)C(F)(F)F)CC2)C1` (single isomer, unassigned) [Example 99], the IC50 was 107 nM in test [1] (setting [3]), 11 nM in test [1] (setting [4]) and over 30000 nM at human recombinant FAAH. For the same compound, the “MAGL kinact/KI” value in test [2] was 16883 1/s per M.

In the case of `O=C(O[C@H](CO)C(F)(F)F)N1CCC2(CC1)CN(S(=O)(=O)c1ccc(F)c(F)c1)CCO2` [Example 52], the values for the concentration for half-maximal inhibition (IC50) (in test [1] (setting [3]); in test [1] (setting [4]); at human recombinant FAAH) were 56 nM, 5 nM and over 30000 nM, respectively. Also, in test [2], the “MAGL kinact/KI” value was 7262 1/s per M.

As for `CN(C1COC2(CCN(C(=O)O[C@H](CO)C(F)(F)F)CC2)C1)S(=O)(=O)C1CCCC1` (mixture of isomers) [Example 112], the IC50 in test [1] (setting [3]) is 64 nM; in test [1] (setting [4]), 7 nM; at human recombinant FAAH, over 30000 nM. Besides, the “MAGL kinact/KI” value in test [2] is listed as 14232 1/s per M.

As for `CN([C@@H]1COC2(CCN(C(=O)O[C@H](CO)C(F)(F)F)CC2)C1)S(=O)(=O)C1CC1` [Example 94, (2R)-1,1,1-Trifluoro-3-hydroxypropan-2-yl (3S)-3-[(cyclopropylsulfonyl)(methyl)amino]-1-oxa-8-azaspiro[4.5]decane-8-carboxylate], the concentration for half-maximal inhibition (IC50) in test [1] (setting [3]) was 316 nM; in test [1] (setting [4]), 27 nM; on human recombinant FAAH it was over 30000 nM. For the same compound, in test [2], the “MAGL kinact/KI” value is on record as 3764 1/s per M.

As for `O=C(O[C@H](CO)C(F)(F)F)N1CCC2(CC1)CC(N1CCc3ccccc3S1(=O)=O)CO2` (mixture of isomers) [Example 131], the figures for the IC50 (in test [1] (setting [3]); in test [1] (setting [4]); on human recombinant FAAH) were 86 nM, 11 nM and 17400 nM, respectively. Also, the “MAGL kinact/KI” value in test [2] is recorded as 4241 1/s per M.

Take `O=C(O[C@H](CO)C(F)(F)F)N1CCC2(CC1)CCN(C(=O)C1CCCC1)C2` [Example 124]: the values for the concentration for half-maximal inhibition (IC50) (in test [1] (setting [3]); in test [1] (setting [4]); at human recombinant FAAH) were 92 nM, 10 nM and over 30000 nM, respectively. For the same compound, in test [2], the “MAGL kinact/KI” value is on record as 6720 1/s per M.

As for `O=C(OC(C(F)(F)F)C(F)(F)CO)N1CCC2(CC1)CN(S(=O)(=O)c1ccc(F)cc1)CCO2` (racemic) [Example 19, 1,1,1,3,3-Pentafluoro-4-hydroxybutan-2-yl 4-[(4-fluorophenyl)sulfonyl]-1-oxa-4,9-diazaspiro[5.5]undecane-9-carboxylate], the IC50 in test [1] (setting [3]) is 95 nM; in test [1] (setting [4]), 8 nM; on human recombinant FAAH, over 30000 nM. Further, the “MAGL kinact/KI” value in test [2] is on record as 2397 1/s per M.

Take `O=C(O[C@H](CO)C(F)(F)F)N1CCC2(CC1)CCN(S(=O)(=O)c1nccs1)C2` [Example 134]: the results for the IC50 (in test [1] (setting [3]); in test [1] (setting [4]); on human recombinant FAAH) were 96 nM, 7 nM and over 23400 nM, respectively. Further, the “MAGL kinact/KI” value in test [2] is listed as 9930 1/s per M.

For the compound `CN(C1COC2(CCN(C(=O)O[C@H](CO)C(F)(F)F)CC2)C1)S(=O)(=O)c1cccc(F)c1` (single isomer, unassigned) [Example 108], the IC50 in test [1] (setting [3]) turned out to be 51 nM; in test [1] (setting [4]), 3 nM; at human recombinant FAAH, 10700 nM. For the same compound, in test [2], the “MAGL kinact/KI” value is 15960 1/s per M.

For the compound `O=C(O[C@H](CO)C(F)(F)F)N1CCC2(CC1)CCN(C(=O)c1ccccc1)C2` [Example 126], the figures for the IC50 (in test [1] (setting [3]); in test [1] (setting [4]); at human recombinant FAAH) were 112 nM, 12 nM and over 30000 nM, respectively. Besides, in test [2], the “MAGL kinact/KI” value is 3723 1/s per M.

Regarding `O=C(O[C@H](CO)C(F)(F)F)N1CCC2(CC1)CN(S(=O)(=O)c1cccc(F)c1)CCO2` [Example 11, (2R)-1,1,1-Trifluoro-3-hydroxypropan-2-yl 4-[(3-fluorophenyl)sulfonyl]-1-oxa-4,9-diazaspiro[5.5]undecane-9-carboxylate], the IC50 is 14 nM in test [1] (setting [3]), 1 nM in test [1] (setting [4]) and over 30000 nM at human recombinant FAAH. In addition, the “MAGL kinact/KI” value in test [2] is on record as 147964 1/s per M.

With `CN([C@H]1COC2(CCN(C(=O)O[C@H](CO)C(F)(F)F)CC2)C1)S(=O)(=O)c1nccs1` [Example 136], the figures for the concentration for half-maximal inhibition (IC50) (in test [1] (setting [3]); in test [1] (setting [4]); on human recombinant FAAH) were 52 nM, 5 nM and over 30000 nM, respectively. Further, the “MAGL kinact/KI” value in test [2] is listed as 15516 1/s per M.

For `CN(C1COC2(CCN(C(=O)O[C@H](CO)C(F)(F)F)CC2)C1)S(=O)(=O)C1CCC1` (mixture of isomers) [Example 113], the IC50 was 139 nM in test [1] (setting [3]), 10 nM in test [1] (setting [4]) and over 25500 nM on human recombinant FAAH. Further, the “MAGL kinact/KI” value in test [2] is 6254 1/s per M.

`CC(C)CS(=O)(=O)N(C)[C@H]1COC2(CCN(C(=O)O[C@H](CO)C(F)(F)F)CC2)C1` [Example 139]: the values for the IC50 (in test [1] (setting [3]); in test [1] (setting [4]); on human recombinant FAAH) were 153 nM, 15 nM and over 30000 nM, respectively. Also, the “MAGL kinact/KI” value in test [2] is listed as 3058 1/s per M.

One may read the IC50 as the point on the concentration scale where inhibition reaches its midpoint.
